{"source": "patent US8158621B2", "about": "“Methods of treating or preventing autoimmune diseases with 2,4-pyrimidinediamine compounds” (Rigel Pharmaceuticals, Inc., priority 2002, dated 2012)", "key": {"Syk kinase [1]": {"system": "Syk kinase", "experiment": "Phosphorylation of proteins downstream of Syk kinase in IgE receptor-activated BMMC cells", "format": "cell-based, mouse", "settings": "activated mast cells (BMMC)", "procedure": "For the assay, BMMC cells were incubated in the presence of varying concentrations of test compound (0.08 μM, 0.4 μM, 2 μM and 10 μM) for 1 hr at 37° C. The cells were then stimulated with anti-IgE antibody as previously described. After 10 min, the cells were lysed and the cellular proteins separated by electrophoresis (SDS PAGE).\n(§1) Following electrophoresis, the phosphorylation of the proteins indicated in FIGS. 7, 10 and 11A-D were assessed by immunoblot. Antibodies were purchased from Cell Signaling Technology, Beverley, Mass."}, "[2]": {"experiment": "14-day repeat-dose intranasal toxicity study in Cynomolgus monkeys", "format": "in vivo", "settings": "14-day intranasal", "procedure": "A 14-day repeat-dose intranasal toxicity study in Cynomolgus monkeys was performed at doses of 2.1, 4.5 or 6.3 mg/kg/day. In life parameters included: clinical observations, body weights, food consumption, ophthalmology, blood pressure, electrocardiography, hematology, clinical chemistry, urinalysis, immunotoxicological assessment, gross necropsy, organ weights, toxicokinetic assessments and histopathology (including the nasal cavity)."}, "[3]": {"experiment": "Non-clinical safety studies of R921218 (summary)", "set-up": "species or system rodents and non-rodents", "settings": "in vivo", "source_text": "A short discussion of key toxicology studies is provided."}, "CHMC cells [4]": {"system": "CHMC cells", "experiment": "anti-IgE-induced Ca2+ flux in CHMC cells", "format": "cell-based, human", "settings": "10 μM"}, "Syk kinase [5]": {"system": "Syk kinase", "experiment": "Phosphorylation of proteins in the FcεRI cascade in activated CHMC cells", "format": "cell-based, human", "settings": "activated CHMC cells, varying concentrations (FIG. 10)", "procedure": "as §1"}, "CHMC cells [6]": {"system": "CHMC cells", "experiment": "ionomycin-induced Ca2+ flux in CHMC cells", "format": "cell-based, human", "settings": "10 μM"}, "[7]": {"system": "bone marrow derived mast cells (BMMC)", "experiment": "BMMC high cell density IgE activation: LTC4", "format": "cell-based, mouse", "settings": "High Density; read-out: BMMC anti-IgE LTC4", "procedure": "After sensitizing, cells are counted, pelleted (1000 rpm, 5-10 minutes), and resuspended at 1-3×10^6 cells/ml in MT buffer. Add 100 ul of cell suspension to each well and 100 ul of compound dilutions. The final vehicle concentration is 0.5% DMSO. Incubate at 37° C. (5% CO2) for 1 hour. After 1 hour of compound treatment, stimulate cells with 6× stimulus (60 ng/ml DNP-BSA). Mix wells with the cells and allow plates to incubate at 37° C. (5% CO2) for one hour. After 1 hour incubation, pellet cells (10 minutes, 1000 RPM) and collect 200 ul per well of the supernatant, being careful not to disturb pellet, and transfer to a clean tube or 96-well plate. Place the supernatant plate on ice. During the 4-5 hour step (see next) perform the hexosiminidase assay. Resuspend cell pellet in 240 ul WEI-conditioned media containing 0.5% DMSO and corresponding concentration of compound. Incubate BMMC cells for 4-5 hours at 37° C. (5% CO2). After incubation, pellet cells (1000 RPM, 10 minutes) and collect 225 ul per well and place in −80° C. until ready to perform ELISAS. ELISAS are performed on appropriately diluted samples (determined empirically for each donor cell population so that the sample measurement falls within the standard curve) following the supplier's instructions."}, "[8]": {"system": "basophil cells (human peripheral blood)", "experiment": "Basophil dustmite activation: histamine release assay", "format": "cell-based", "settings": "basophils, dust mite activation", "procedure": "The basophil activation assay was carried out using whole human peripheral blood from donors allergic to dust mites with the majority of the red blood cells removed by dextran sedimentation. Human peripheral blood was mixed 1:1 with 3% dextran T500 and RBCs were allowed to settle for 20-25min. The upper fraction was diluted with 3 volumes of D-PBS and cells were spun down for 10 min at 1500 rpm, RT. Supernatant was aspirated and cells were washed in an equal volume MT-buffer. Finally, cells were resuspended in MT-buffer containing 0.5% DMSO in the original blood volume. 80 uL cells were mixed with 20 uL compound in the presence of 0.5% DMSO, in triplicate, in a V-bottom 96-well tissue culture plate. A dose range of 8 compound concentrations was tested resulting in a 10-point dose response curve including maximum (stimulated) and minimum (unstimulated) response. […] The cells were stimulated for 30 minutes at 37° C., 5% CO2. The plate was spun for 10 min at 1500 rpm at room temperature and 80 uL the supernatant was harvested for histamine content analysis using the histamine ELISA kit supplied by Immunotech. The ELISA was performed according to supplier's instructions."}, "[9]": {"system": "Salmonella-Escherichia coli tester strains", "settings": "for Ames test, tester strain TA1537: with and without metabolic activation"}, "[10]": {"experiment": "Mouse experimental autoimmune encephalomyelitis (EAE)", "format": "in vivo", "settings": "for mice relapsed: from day of immunization", "procedure": "In the SJL murine model of EAE, each mouse is sensitized with PLP/CFA. […] In a treatment protocol, at onset of disease, animals are separated to achieve groups with a similar mean clinical score at onset and administered vehicle or various dose frequencies of test articles via oral gavage. In both protocols, clinical scores are monitored daily, and body weights are measured twice weekly."}, "[11]": {"experiment": "Rat collagen-induced arthritis (CIA)", "format": "in vivo, LOU rats", "settings": "for Blinded radiographic scores (scale 0-6): Day 28", "procedure": "In both protocols, clinical scores were obtained daily, and body weights are measured twice weekly. At Day 28, radiographic scores were obtained, and scrum levels of collagen II antibody were measured by ELISA."}, "[12]": {"system": "differentiated human macrophages", "experiment": "Macrophage activation, IgG stimulation: TNF", "format": "cell-based", "settings": "stimulus (IgG or LPS) not given; read-out: Monocytes/Macrophage TNF IC50", "procedure": "Purity was assessed by measuring the percentage of CD14+ cells by flow cytometry.\nA negative control consisting of the F(ab′)2 fragment was also coated to assess background stimulation. Unbound antibody was washed away 2× with 200 ul PBS. […] The cells were incubated for 16 hr in a 37° C. incubator, and supernatants were collected for Luminex analysis for IL-6 and TNFα, essentially as described for the primary T-cells, above."}, "[13]": {"experiment": "in vitro chromosomal aberration assay"}, "[14]": {"settings": "100 mg/kg 1x/day starting on day of immunization"}, "[15]": {"settings": "100 mg/kg 2x/day starting on day of immunization"}, "[16]": {"settings": "200 mg/kg 2x/day starting on day of onset"}}, "note": "Values joined by “and” are separate entries in the source; they are usually repeats but may differ in a detail not shown here. Identical values can stand only once. Marks after values point to notes of the source that are not given here."}
{"smiles": "Oc1cccc(Nc2ncc(F)c(Nc3cccc(O)c3)n2)c1", "note": "[Compound R921218]", "values": [{"measurement": "phosphorylation of Syk kinase substrates and proteins downstream of Syk kinase", "setting": "Syk kinase [1]", "result": "inhibit phosporylation of various proteins downstream of Syk kinase"}, {"measurement": "NOAEL (no observed adverse effect level)", "setting": "[2]", "result": 6.3, "unit": "mg/kg/day"}, {"measurement": "genetic toxicology testing", "setting": "[3]", "result": "no evidence for mutagenic or elastogenic potential"}, {"measurement": "anti-IgE-induced Ca2+ flux", "setting": "CHMC cells [4]", "result": "inhibited"}, {"measurement": "phosphorylation of proteins downstream of Syk kinase, but not LYN kinase, in the FcεRI signal transduction cascade", "setting": "Syk kinase [5]", "result": "inhibit phosphorylation of proteins downstream of Syk kinase, but not LYN kinase"}, {"measurement": "ionomycin-induced Ca2+ flux", "setting": "CHMC cells [6]", "result": "no effect"}, {"measurement": "IC50", "setting": "[7]", "result": 766, "unit": "nM"}, {"measurement": "IC50", "setting": "[8]", "result": 302, "unit": "nM"}]}
{"smiles": "Nc1cccc(Nc2ncc(F)c(Nc3cccc(N)c3)n2)c1", "note": "[Compound R921302]", "values": [{"measurement": "Ames test, other tester strains", "setting": "[9]", "result": "not found to adversely affect any of the other 3 tester strains"}, {"measurement": "Ames test, tester strain TA98", "setting": "[9]; with S9", "result": "positive"}, {"measurement": "Ames test, tester strain TA1537", "setting": "[9]", "result": "positive"}, {"measurement": "Incidence", "setting": "[10]; [14]", "result": "10/10"}, {"measurement": "Mortality", "setting": "[10]; [14]", "result": "0/10"}, {"measurement": "Onset", "setting": "[10]; [14]", "result": "12.3 ± 0.7"}, {"measurement": "Peak (mean clinical score)", "setting": "[10]; [14]", "result": "4.3+1.3 and 4.3 ± 1.3"}, {"measurement": "Incidence", "setting": "[10]; [15]", "result": "10/10"}, {"measurement": "Mortality", "setting": "[10]; [15]", "result": "3/10^a"}, {"measurement": "Onset", "setting": "[10]; [15]", "result": "13.0 ± 1.2^b"}, {"measurement": "Peak (mean clinical score)", "setting": "[10]; [15]", "result": "4.3+1.4 and 4.3 ± 1.4"}, {"measurement": "mice relapsed", "setting": "[10]; 100 mg/kg twice daily group", "result": "None"}, {"measurement": "mice relapsed", "setting": "[10]; 100 mg/kg/day group", "result": "3/8"}, {"measurement": "Incidence", "setting": "[10]; [16]", "result": "12/12"}, {"measurement": "Mean score at treatment", "setting": "[10]; [16]", "result": "3.4 ± 1.6"}, {"measurement": "Mortality", "setting": "[10]; [16]", "result": "1/12"}, {"measurement": "Peak", "setting": "[10]; [16]", "result": "4.3 ± 0.7"}, {"measurement": "Relapses", "setting": "[10]; [16]", "result": "2/12"}, {"measurement": "arthritis score", "setting": "[11]; 300 mg/kg at disease onset, Day 16 to Day 28", "result": "significantly lower arthritis score"}, {"measurement": "mean clinical scores compared with vehicle controls", "setting": "[11]; 300 mg/kg/day from day of immunization, Days 10-28", "result": "significantly reduced"}, {"measurement": "erosions and soft tissue swelling", "setting": "[11]; 300 mg/kg/day, prophylactically or after disease onset", "result": "precluded the development of erosions and reduced soft tissue swelling"}, {"measurement": "Blinded radiographic scores (scale 0-6)", "setting": "[11]; once daily 150 mg/kg/day, prevention regimen", "result": "2.4±0.006"}, {"measurement": "Blinded radiographic scores (scale 0-6)", "setting": "[11]; once daily 300 mg/kg/day at onset of disease", "result": "0.45±0.031"}, {"measurement": "Blinded radiographic scores (scale 0-6)", "setting": "[11]; once daily 300 mg/kg/day, prevention regimen", "result": "0.13 ±0.000001"}, {"measurement": "serum anti-collagen II antibody", "setting": "[11]; data not shown", "result": "marked reduction"}]}
{"smiles": "OCCCn1ncc2cc(Nc3ncc(F)c(Nc4ccc(Cl)c(Cl)c4)n3)ccc21", "note": "[Compound R935391]", "values": [{"measurement": "IC50", "setting": "[12]", "result": 1160, "unit": "nM"}]}
{"smiles": "CNC(=O)COc1cccc(Nc2ncc(F)c(Nc3ccc4c(c3)NCCO4)n2)c1", "note": "[Compound R921219]", "values": [{"measurement": "phosphorylation of Syk kinase substrates and proteins downstream of Syk kinase", "setting": "Syk kinase [1]", "result": "inhibit phosporylation of various proteins downstream of Syk kinase"}, {"measurement": "Ames test, other tester strains", "setting": "[9]", "result": "not found to adversely affect any of the other 4 tester strains"}, {"measurement": "Ames test, tester strain TA1537", "setting": "[9]", "result": "positive"}, {"measurement": "phosphorylation of proteins downstream of Syk kinase, but not LYN kinase, in the FcεRI signal transduction cascade", "setting": "Syk kinase [5]", "result": "inhibit phosphorylation of proteins downstream of Syk kinase, but not LYN kinase"}, {"measurement": "clastogenic potential, in vitro chromosomal aberration assay", "setting": "[13]", "result": "not found to possess elastogenic potential"}]}
{"smiles": "CC1(C)Oc2ccc(Nc3nc(Nc4ccc5cn[nH]c5c4)ncc3F)cc2NC1=O", "note": "[Compound R940363]", "values": [{"measurement": "IC50", "setting": "[12]", "result": 133, "unit": "nM"}]}
